Tests used:
Assay type in all cases: in vivo, Swiss albino mice
mice [1] = assay: Forced swim test; settings: 100 mg/kg p.o.
Method: Mice forced to swim in a restricted space from which they cannot escape are induced to a characteristic behavior of immobility.
Male Swiss albino mice weighing 25-30 g would be brought into the laboratory at least one day before the experiment and would be housed separately in cages. Mice would be individually forced to swim inside a vertical Plexiglas cylinder (25×23 cm) containing 12 cm of water maintained at 25° C.
After 2-3 min activity begins to subside and to be interspersed with phases of immobility or floating of increasing length. After 5-6 min immobility reaches a plateau where the mice remain immobile for approximately 80% of the time. After 15 min in the water the mice would be removed and would be allowed to dry in a heated enclosure (32° C.) before being returned to their home cages. They would again be placed in the cylinder 24 hr later and the total duration of immobility would be counted for the last 4 min of 6 min test session. An animal is judged to be immobile whenever it remains floating passively in the water in a slightly hunched but upright position, its nose just above the surface.

re uptake of serotonin = assay: 5-Hydroxytryptophan (L 5-HTP) potentiation in mice; settings: 64 mg/kg p.o.
Method: 5-Hydroxytryptophan (L 5-HTP) Potentiation in Mice
Several antidepressant agents potentiate serotonin effects by a block of the re uptake of serotonin. 5-Hydroxytryptophan is used as the precursor of serotonin.
Groups of 6 Swiss albino mice (25-30 g) would be used. […] The mice would be then placed into glass bell jars and the number of head twitches would be counted in five 2-min intervals (between 14 and 16, 24 and 26, 34 and 36, 44 and 46 and 54 and 56 min).

mice [2] = assay: Forced swim test after reserpine administration
Method: Reserpine Antagonism Depletion of biogenic amines in brain induces not only catalepsy but also hypothermia in rodents. The decrease of body temperature induced by reserpine is antagonized by antidepressants, MAO-inhibitors and central stimulants. Reserpine also decreases the levels of brain neuroamines like serotonin. […] Forced Swim Test after Reserpine Administration Male Swiss albino mice weighing 25-30 g would be used. All the animals would be Pre trained individually to swim for 15 minutes in vertical plexiglass cylinder (25×23 cm) containing 12 cm of water maintained at 25° C. They would be injected with 5 mg/kg reserpine i.p. after 20 hr of pretraining.

mice [3] = assay: Locomotor activity test after reserpine administration
Method: The intra-peritoneal administration of reserpine (5 mg/kg, i.p.) in mice leads to reduce locomotor activity which can be antagonized by antidepressants, MAO-inhibitors and central stimulants. Male Swiss albino mice weighing 25-30 g would be used.

mice [4] = assay: Tail suspension test in mice; settings: 64 mg/kg p.o.
Source text: Effect of Test Compound on Tail Suspension in Mice
This test is used to evaluate potential antidepressants by determining the percentage decrease in immobility in rodents. […] Clinically effective anti-dependents reduce the immobility that mice display after active and unsuccessful attempts to escape when suspended by tail.
Swiss albino mice of either sex weighing 25-30 g would be housed in plastic cages for at least 10 days prior to testing. Animals would be allowed to adapt to the testing environment for 1 hr before testing. […] For the test, the mice would be suspended on the edge of a shelf 58 cm above a tabletop by adhesive tape placed approximately 1 cm from the tip of the tail. The duration of immobility would be recorded for a period of 6 min continuously. Mice are considered immobile when they hang passively and completely motionless for at least […].
The percentage of animals showing the passive behavior is counted and compared with vehicle treated controls using various doses.

mice [5] = assay: Locomotor activity in mice (Actophotometer)
Method: Effect of Test Compound on Locomotor Activity in Mice This test is conducted to rule out the sedative aspect of the anti-depressants. Besides, it can also eliminate certain muscle relaxant effects of the drug. Swiss albino mice are tested in a locomotors chamber with laser sensors to check their movements. The locomotors score is a direct function of the mobility of the animal. Decrease in mobility could be due to sedative effect and muscle relaxant effect. Swiss albino mice of either sex weighing 25-30 g would be housed in plastic cages for at least 10 days prior to testing. Animals would be allowed to adapt to the testing environment for 1 hr before testing. […] For the test the mice would be individually placed in Actophotometer.

| SMILES | TOTAL IMMOBILITY TIME (mice [1]; one hour before test, last 4 min of 6 min session) [s] | % DECREASE IN IMMOBILITY (mice [1]; vs vehicle group) [%] | TOTAL NO OF HEAD TWITCHES MEAN ± SEM (re uptake of serotonin; 60 min before 75 mg/kg i.p. 5-HTP) | % INCREASE IN NO OF HEAD TWITCHES (re uptake of serotonin; vs vehicle group) [%] | TOTAL IMMOBILITY TIME (mice [2]; 100 mg/kg oral, 4 h after reserpine 5 mg/kg i.p., 6 min swim) [s] | % DECREASE IN IMMOBILITY (mice [2]; 100 mg/kg oral, vs reserpine group) [%] | % INCREASE IN LOCOMOTOR ACTIVITY (mice [3]; 64 mg/kg oral, vs reserpine group) [%] | TOTAL IMMOBILITY TIME (mice [4]; 60 min before test, 6 min recording) [s] | % DECREASE IN IMMOBILITY (mice [4]; vs vehicle group) [%] | TOTAL LOCOMOTOR ACTIVITY COUNTS (mice [5]; 64 mg/kg p.o., 60 min before test, 10 min count) | % INCREASE IN LOCOMOTOR ACTIVITY (mice [5]; 64 mg/kg p.o., vs vehicle group) [%] | sedative effect (in words) (mice [5]; mice, locomotor activity test) | TOTAL IMMOBILITY TIME (mice [2]; reserpine 5 mg/kg i.p. alone) [s] | TOTAL LOCOMOTOR ACTIVITY COUNTS (mice [3]; reserpine 5 mg/kg i.p. alone) |
| --- | --- | --- | --- | --- | --- | --- | --- | --- | --- | --- | --- | --- | --- | --- |
| CN(C)CCCN1c2ccccc2CCc2ccccc21 [Imipramine] | 45.17 ± 4.450 | 71.44 | 13.25 ± 2.477 | −38.73 | 063.57 ± 3.320 | 71.24 | 079.91 | 90.90 ± 7.690 | 51.88 | 127.00 ± 06.90 | −38.80 | induces sedation | – | – |
| COC(=O)[C@H]1[C@H]2C[C@@H]3c4[nH]c5cc(OC)ccc5c4CCN3C[C@H]2C[C@@H](OC(=O)c2cc(OC)c(OC)c(OC)c2)[C@@H]1OC [Reserpine] | – | – | – | – | – | – | – | – | – | – | – | – | 221.60 ± 6.793 | 121.17 ± 06.112 |

From patent US20080194499A1, “Composition for selective serotonin reuptake inhibition and process thereof” (priority 2007, published 2008)
